Source: patent US11566007B2, “Ras inhibitors” (Revolution Medicines, Inc., priority 2019, dated 2023)
Where “and” joins values, the source holds several entries; their conditions need not be identical. Identical values can stand only once. Like-named read-outs stand apart in the source and are kept apart here.

Legend:
[1] = target: KRAS WT (Homo sapiens (Human), UniProt P01116+P62937); experiment: Ras-Raf (BRAF RBD) disruption / FRET / MOA assay, KRAS WT; type: biochemical; settings: read-out: IC50* KRAS WT FRET data
Method in brief: (§1)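 A 10-point, 3-fold dilution series topping at 30 μM final was incubated 3 h at 25° C with the Ras/cyclophilin A/BRAF RBD mixture.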

[2] = system: NCI-H358 (K-Ras G12C); experiment: CellTiter-Glo cell viability assay, NCI-H358; type: cell-based, human; settings: NCI-H358, 5-day treatment, class symbols, read-out: Additional H358 Cell Viability assay data (K-Ras G12C, IC50)
Method in brief: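 Compounds were dispensed directly onto K-Ras mutant cells and incubated until day 5, then plates were equilibrated to room temperature for about 30 minutes before CellTiter-Glo luminescence. Signals were normalized as (sample/average DMSO)*100 and fitted by four-parameter logistic fit.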

[3] = target: KRAS G12S (Homo sapiens (Human), UniProt P01116+P62937, G12S); experiment: Ras-Raf (BRAF RBD) disruption / FRET / MOA assay, KRAS G12S; type: biochemical; settings: Ras-Raf disruption/FRET/MOA assay; class symbols; read-out: KRAS G12S FRET data IC50
Method in brief: as §1

[4] = target: KRAS Q61H (Homo sapiens (Human), UniProt P01116+P62937, Q61H); experiment: Ras-Raf (BRAF RBD) disruption / FRET / MOA assay, KRAS Q61H; type: biochemical; settings: Ras-Raf disruption/FRET/MOA assay; class symbols; read-out: KRAS Q61H FRET data IC50
Method in brief: (§2)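 Compounds (30 μM top final, 10-point 3-fold dilutions) incubated 3 h at 25° C with nucleotide-loaded Ras, cyclophilin A and BRAF RBD. Detection with 10 nM anti-His Eu-W1024 and 50 nM anti-GST allophycocyanin over another 1.5 h. Lowered TR-FRET ratio relative to DMSO wells gives IC50.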

[5] = target: NRAS Q61K (Homo sapiens (Human), UniProt P01111+P62937, Q61K); experiment: Ras-Raf (BRAF RBD) disruption / FRET / MOA assay, NRAS Q61K; type: biochemical; settings: NRAS Q61K; Ras-Raf disruption/FRET/MOA assay; read-out: IC50* NRAS Q61K FRET data
Method in brief: as §2

[6] = target: NRAS WT (Homo sapiens (Human), UniProt P01111+P62937); experiment: Ras-Raf (BRAF RBD) disruption / FRET / MOA assay, NRAS WT; type: biochemical; settings: read-out: IC50* NRAS WT FRET data
Method in brief: as §2

[7] = target: NRAS G12C (Homo sapiens (Human), UniProt P01111+P62937, G12C); experiment: Ras-Raf (BRAF RBD) disruption / FRET / MOA assay, NRAS G12C; type: biochemical; settings: read-out: IC50* NRAS G12C FRET data
Method in brief: as §1

Chain of KRAS Q61H (P01116-2 other isoform, or with tags, fused parts or gaps Q61H): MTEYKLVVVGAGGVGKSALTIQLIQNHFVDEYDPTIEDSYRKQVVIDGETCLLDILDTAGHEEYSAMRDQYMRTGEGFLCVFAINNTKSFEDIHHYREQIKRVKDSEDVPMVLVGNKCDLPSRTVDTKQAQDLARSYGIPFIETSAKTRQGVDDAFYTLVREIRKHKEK
Chain of KRAS Q61H (P62937 whole entry): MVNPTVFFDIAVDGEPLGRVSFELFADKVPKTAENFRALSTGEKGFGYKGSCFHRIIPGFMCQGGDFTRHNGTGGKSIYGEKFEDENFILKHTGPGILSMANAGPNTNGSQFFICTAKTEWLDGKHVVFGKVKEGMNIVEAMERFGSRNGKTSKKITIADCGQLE
Chain of KRAS G12S (P01116-2 other isoform, or with tags, fused parts or gaps G12S): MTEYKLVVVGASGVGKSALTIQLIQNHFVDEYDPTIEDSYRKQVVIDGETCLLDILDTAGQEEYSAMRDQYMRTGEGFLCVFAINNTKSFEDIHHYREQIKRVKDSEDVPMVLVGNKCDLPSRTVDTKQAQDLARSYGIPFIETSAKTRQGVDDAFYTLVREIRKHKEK
Chain of KRAS G12S (P62937 whole entry): as the sequence (P62937 whole entry) above
Chain of NRAS G12C (P01111 whole entry G12C): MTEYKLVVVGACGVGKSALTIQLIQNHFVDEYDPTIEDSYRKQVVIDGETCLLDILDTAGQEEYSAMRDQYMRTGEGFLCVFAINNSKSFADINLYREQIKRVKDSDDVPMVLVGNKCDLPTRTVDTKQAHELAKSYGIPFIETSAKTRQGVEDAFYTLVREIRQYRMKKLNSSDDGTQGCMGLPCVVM
Chain of NRAS G12C (P62937 whole entry): as the sequence (P62937 whole entry) above
Chain of KRAS WT (P01116-2 other isoform, or with tags, fused parts or gaps): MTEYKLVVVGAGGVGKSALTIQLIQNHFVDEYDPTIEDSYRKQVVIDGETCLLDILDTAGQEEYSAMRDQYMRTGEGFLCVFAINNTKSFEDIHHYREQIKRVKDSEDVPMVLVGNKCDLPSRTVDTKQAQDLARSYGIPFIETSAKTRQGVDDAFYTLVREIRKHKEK
Chain of KRAS WT (P62937 whole entry): as the sequence (P62937 whole entry) above
Chain of NRAS WT (P01111 whole entry): as the sequence (P01111 whole entry G12C) above, with C12G counted along it
Chain of NRAS WT (P62937 whole entry): as the sequence (P62937 whole entry) above
Chain of NRAS Q61K (P01111 whole entry Q61K): as the sequence (P01111 whole entry G12C) above, with C12G, Q61K counted along it
Chain of NRAS Q61K (P62937 whole entry): as the sequence (P62937 whole entry) above

SMILES | IC50 [1] | IC50 ([2]; Homo sapiens, NCI-H358, 120 h) [nM] | IC50 [2] [nM] | IC50 [3] | IC50 [4] [nM] | IC50 [5] [nM] | IC50 [6] [nM] | IC50 [7]
C=CC(=O)N1CC[C@H](C(=O)N(C)[C@H](C(=O)N[C@H]2Cc3cc(O)cc(c3)-c3ccc4c(c3)c(c(-c3cc(C)ccc3[C@H](C)OC)n4CC)CC(C)(C)COC(=O)[C@@H]3CCCN(N3)C2=O)C(C)C)C1 (atropisomer, axis not shown) [Example A167] | 1000 to 10000 nM and 10 to 100 nM | 10 to 100 | < 10 | 1000 to 10000 nM and 10 to 100 nM | 10 to 100 | 100 to 1000 | 10 to 100 | 100 to 1000 nM and < 10 nM
CC#CC(=O)N1CCC(C(=O)N(C)[C@H](C(=O)N[C@H]2Cc3nc(cs3)-c3ccc4c(c3)c(c(-c3cccnc3[C@H](C)OC)n4CC)CC(C)(C)COC(=O)[C@@H]3CCCN(N3)C2=O)C(C)C)C1 (atropisomer, axis not shown) [Example A168] | 1000 to 10000 nM | 10 to 100 | – | 1000 to 10000 nM | 1000 to 10000 | 1000 to 10000 | 1000 to 10000 | 1000 to 10000 nM
C=CC(=O)N1CC[C@H](C(=O)N(C)[C@H](C(=O)N[C@H]2Cc3cccc(c3)-c3ccc4c(c3)c(c(-c3cccnc3[C@H](C)OC)n4CC(F)F)CC(C)(C)COC(=O)[C@@H]3CCCN(N3)C2=O)C(C)C)C1 (atropisomer, axis not shown) [Example A335] | 1000 to 10000 nM | 10 to 100 | – | 1000 to 10000 nM | 1000 to 10000 | 1000 to 10000 | 1000 to 10000 | 100 to 1000 nM
C=CC(=O)N1CC[C@H](C(=O)N(C)[C@H](C(=O)N[C@H]2Cc3cc(cc(C(F)F)c3)-c3ccc4c(c3)c(c(-c3cccnc3[C@H](C)OC)n4CC)CC(C)(C)COC(=O)[C@@H]3CCCN(N3)C2=O)C(C)C)C1 (atropisomer, axis not shown) [Example A341, (3S)-1-acryloyl-N-((2S)-1-(((6^3S,4S)-2^5-(difluoromethyl)-1^1-ethyl-1^2-(2-((S)-1-methoxyethyl)pyridin-3-yl)-10,10-dimethyl-5,7-dioxo-6^1,6^2,6^3,6^4,6^5,6^6-hexahydro-1^1H-8-oxa-1(5,3)-indola-6(1,3)-pyridazina-2(1,3)-benzenacycloundecaphane-4-yl)amino)-3-methyl-1-oxobutan-2-yl)-N-methylpyrrolidine-3-carboxamide] | 1000 to 10000 nM | 10 to 100 | – | 1000 to 10000 nM | 100 to 1000 | 1000 to 10000 | 1000 to 10000 | 100 to 1000 nM
C=CC(=O)N1CC(OC[C@H](C(=O)N[C@H]2Cc3cccc(c3)-c3ccc4c(c3)c(c(-c3cccnc3[C@H](C)OC)n4CC(F)(F)F)CC(C)(C)COC(=O)[C@@H]3CCCN(N3)C2=O)C(C)C)C1 (atropisomer, axis not shown) [Example A344] | 1000 to 10000 nM | < 10 | – | 1000 to 10000 nM | 100 to 1000 | 1000 to 10000 | 1000 to 10000 | 10 to 100 nM
C=CC(=O)N1CC(OC[C@H](C(=O)N[C@H]2Cc3cc(cc(C(F)F)c3)-c3ccc4c(c3)c(c(-c3cccnc3[C@H](C)OC)n4CC)CC(C)(C)COC(=O)[C@@H]3CCCN(N3)C2=O)C(C)C)C1 (atropisomer, axis not shown) [Example A345] | > 10000 nM | 100 to 1000 | – | > 10000 nM | 1000 to 10000 | > 10000 | > 10000 | 1000 to 10000 nM
C=CC(=O)N1CC2(COCCN2C(=O)N(C)[C@H](C(=O)N[C@H]2Cc3nc(cs3)-c3ccc4c(c3)c(c(-c3cccnc3[C@H](C)OC)n4CC)CC(C)(C)COC(=O)[C@@H]3CCCN(N3)C2=O)C(C)C)C1 (atropisomer, axis not shown) [Example A352] | 1000 to 10000 nM | < 10 | – | > 10000 nM | 1000 to 10000 | 1000 to 10000 | 1000 to 10000 | 10 to 100 nM
C=CC(=O)N1CC[C@@]2(C1)CN(C(=O)N(C)[C@H](C(=O)N[C@H]1Cc3nc(cs3)-c3ccc4c(c3)c(c(-c3cccnc3[C@H](C)OC)n4CC)CC(C)(C)COC(=O)[C@@H]3CCCN(N3)C1=O)C(C)C)CCO2 (atropisomer, axis not shown) [Example A353] | 100 to 1000 nM | 10 to 100 | – | 100 to 1000 nM | 10 to 100 | 10 to 100 | 100 to 1000 | 10 to 100 nM
C=CC(=O)NC[C@H]1CCN1C(=O)N(C)[C@H](C(=O)N[C@H]1Cc2nc(cs2)-c2ccc3c(c2)c(c(-c2cccnc2[C@H](C)OC)n3CC)CC(C)(C)COC(=O)[C@@H]2CCCN(N2)C1=O)C(C)C (atropisomer, axis not shown) [Example A356] | 100 to 1000 nM | < 10 | – | 1000 to 10000 nM | 100 to 1000 | 100 to 1000 | 100 to 1000 | 100 to 1000 nM
C=C(C)C(=O)N1CC(N(C)C(=O)N(C)[C@H](C(=O)N[C@H]2Cc3nc(cs3)-c3ccc4c(c3)c(c(-c3cccnc3[C@H](C)OC)n4CC)CC(C)(C)COC(=O)[C@@H]3CCCN(N3)C2=O)C(C)C)C1 (atropisomer, axis not shown) [Example A360] | 100 to 1000 nM | 10 to 100 | – | 100 to 1000 nM | 100 to 1000 | 100 to 1000 | 100 to 1000 | 100 to 1000 nM
CCn1c(-c2cccnc2[C@H](C)OC)c2c3cc(ccc31)-c1csc(n1)C[C@H](NC(=O)[C@H](C(C)C)N(C)C(=O)N(C)C1CN(C(=O)/C=C/CN(C)C)C1)C(=O)N1CCC[C@H](N1)C(=O)OCC(C)(C)C2 (atropisomer, axis not shown) [Example A361] | 100 to 1000 nM | 10 to 100 | – | 100 to 1000 nM | 100 to 1000 | 100 to 1000 | 100 to 1000 | 10 to 100 nM
CCn1c(-c2cccnc2[C@H](C)OC)c2c3cc(ccc31)-c1csc(n1)C[C@H](NC(=O)CN1CC[C@@]3(CCN(C(=O)C#CC(C)(C)N4CCC4)C3)C1)C(=O)N1CCC[C@H](N1)C(=O)OCC(C)(C)C2 (atropisomer, axis not shown) [Example A364] | 1000 to 10000 nM | 100 to 1000 | – | 1000 to 10000 nM | 1000 to 10000 | 1000 to 10000 | 1000 to 10000 | 100 to 1000 nM
CCn1c(-c2cccnc2[C@H](C)OC)c2c3cc(ccc31)-c1csc(n1)C[C@H](NC(=O)CCO[C@@H]1CCN(C(=O)C#CC(C)(C)N3CCC3)C1)C(=O)N1CCC[C@H](N1)C(=O)OCC(C)(C)C2 (atropisomer, axis not shown) [Example A366] | 1000 to 10000 nM | 100 to 1000 | – | 1000 to 10000 nM | 100 to 1000 | 1000 to 10000 | 1000 to 10000 | 100 to 1000 nM
C=CC(=O)N1CC[C@H](C(=O)N(C)[C@H](C(=O)N[C@H]2Cc3cc(cc(C(F)F)c3)-c3ccc4c(c3)c(c(-c3cccnc3[C@H](C)OC)n4CC(F)(F)F)CC(C)(C)COC(=O)[C@@H]3CCCN(N3)C2=O)C(C)C)C1 (atropisomer, axis not shown) [Example A372] | 1000 to 10000 nM | 10 to 100 | – | 1000 to 10000 nM | 100 to 1000 | 1000 to 10000 | 1000 to 10000 | 100 to 1000 nM
CCn1c(-c2cccnc2[C@H](C)OC)c2c3cc(ccc31)N1CCO[C@@H](C[C@H](NC(=O)[C@@H](COC3CN(C(=O)C#CC(C)(C)N(C)C)C3)C(C)C)C(=O)N3CCC[C@H](N3)C(=O)OCC(C)(C)C2)C1 (atropisomer, axis not shown) [Example A377, (2R)-2-(((1-(4-(dimethylamino)-4-methylpent-2-ynoyl)azetidin-3-yl)oxy)methyl)-N-((2^2S,6^3S,4S)-1^1-ethyl-1^2-(2-((S)-1-methoxyethyl)pyridin-3-yl)-10,10-dimethyl-5,7-dioxo-6^1,6^2,6^3,6^4,6^5,6^6-hexahydro-1^1H-8-oxa-2(4,2)-morpholina-1(5,3)-indola-6(1,3)-pyridazinacycloundecaphane-4-yl)-3-methylbutanamide] | > 10000 nM | < 10 | – | > 10000 nM | > 10000 | > 10000 | > 10000 | < 10 nM
CO[C@@H](C)c1ncccc1-c1c2c3cc(ccc3n1CC(F)(F)F)-c1csc(n1)C[C@H](NC(=O)CCOC1CN(C(=O)C#CC(C)(C)N(C)C)C1)C(=O)N1CCC[C@H](N1)C(=O)OCC(C)(C)C2 (atropisomer, axis not shown) [Example A380] | 1000 to 10000 nM | < 10 | – | 1000 to 10000 nM | 1000 to 10000 | 1000 to 10000 | 1000 to 10000 | < 10 nM
